{
  "source": "patent US20240358705A1",
  "about": "“COMPOSITIONS AND METHODS FOR TREATMENT OF CANCER” (Board of Supervisors of Louisiana State University and …, priority 2021, published 2024)",
  "key": {"[1]": {"system": "CD4 T cells", "assay": "Annexin/PI apoptosis staining, CD4", "format": "cell-based, mouse", "settings": "3 μM or 10 μM, 72 hours, vs DMSO", "protocol": "(§1) Lymph nodes and spleen were isolated from wild-type C57BL/6N mice. Tissue was mechanically dissociated with the back of a syringe plunger and passed through a 70 M filter. […] Treated cells were incubated at 37° C., 5% CO2 for the designed study duration.\n(§2) Treated CD3 T cells were prepared following the in vitro T cell activation method and incubated for 72 hours at 37° C., 5% CO2."}, "[2]": {"system": "BM-MDSCs", "settings": "differentiating BM-MDSCs, 3 μM or 10 μM, 72 hours", "protocol": "Bone marrow cells were isolated by flushing the tibia and femurs of wild-type C57BL/6N mice. […] To generate BM-MDSCs, 3×10^6 cells were plated in a 6-well dish and incubated at 37° C., 5% CO2 for 96 hours. For treatment, drugs were administered at either 3 μM or 10 μM concentrations and added to the BM-MDSC cell culture well 24 hours after plating.\nProtein concentration was quantified using a BCA protein assay kit (Thermo #A53225). […] of protein diluted with 1×LDS sample buffer (Life Technologies #B0008) and 1×sample reducing agent (Life Technologies #B0009), were denatured at 95° C. for 5 minutes. Denatured T cell protein was resolved using a 10% Bolt Bis-Tris plus protein gel (Thermo #NW00102BOX) and denatured BM-MDSC protein was resolved using an 8% Bolt Bis-Tris plus protein gel (Thermo #NW00082BOX). Gels were transferred to a PVDF membrane (Invitrogen #IB401002) using a seven-minute P3 program on an Invitrogen iBlot dry transfer system. Membranes were then blocked for one hour using 5% nonfat dry milk in TBS-T, washed three times with TBS-T and probed with primary antibody diluted with 5% BSA in TBS-T overnight at 4° C. with gentle rocking. Primary antibody was removed, and membranes were washed three times with TBS-T followed by secondary antibody diluted in TBS-T at room temperature for one hour with gentle rocking. […]"}, "[3]": {"system": "B16", "assay": "In vivo adoptive cellular transfer, pmel-I, B16 tumor", "set-up": "species or system mouse", "settings": "T cells pre-treated with 10 μM; B16 tumor bearing mice; vs sham and DMSO pre-treated", "protocol": "C57BL/6N mice were injected with 3×10^5 B16-OVA or B16 subcutaneously in the right flank. Five days after injection, mice were administered 200 μg cyclophosphamide monohydrate (Sigma #C73971G) dissolved in PBS by intraperitoneal injection to induce minor lymphodepletion. 48 hours after lymphodepletion, mice were intravenously adoptively transferred 2.5×10^6 CD8 OT-I or CD8 […] pre-treated ex vivo following the in vitro T cell activation method. Tumor growth rates were determined by tumor volume measurement beginning on day four and continuing three times per week for the study duration. Tumor volumes were determined by the ellipsoid formula: [(Length×Width^2)/2]. At the end of study, tumors were either fixed in 10% formalin or dissociated into a single-cell suspension for flow cytometry. Single-cell suspension was performed by chopping tumor tissue with scissors followed by a 30-minute incubation at 37° C. with 100 µg/ml DNase I (Roche #10104159001) and 0.5 U/ml Liberase (Roche #05401127001) in PBS. Solution was then diluted with cRPMI-1640 and passed through a 70 μm cell strainer, pelleted and resuspended in ACK lysis buffer to remove erythrocytes. Cells were then counted, filtered through a 70 μm cell strainer, and 10×10^6 cells were aliquoted and stained following the immune profiling by flow cytometry method."}, "[4]": {"system": "adoptively transferred CD8 OT-I T cells", "assay": "Immune profiling and proliferation of in vivo vaccinated CD8 T cells", "set-up": "species or system mouse", "settings": "for OT-I CD8 T cell proliferation, lymph node: vehicle MC 49.37%; for effector/memory CD8 OT-I T cells, splenic compartment: vehicle MC 12.53%; for adoptively transferred cells expressing PD-1, lymph node: vehicle MC 12.58%; for effector/memory CD8 OT-I T cells, lymph node: vehicle MC 23.11%; for OT-I CD8 T cell proliferation, splenic compartment: vehicle MC 30.68%; for naïve CD8 OT-I T cells, splenic compartment: vehicle MC 46.68%; for naïve CD8 OT-I T cells, lymph node: vehicle MC […]", "protocol": "Five hours later, mice were vaccinated by subcutaneous injection with […] (SEQ ID NO: 1) in IFA. 16 hours after vaccination, mice were administered 30 mg/kg or 90 mg/kg GLPG1205 suspended in 0.5% methylcellulose (Sigma #M0430100G) with 0.5% Tween-80 (Sigma #P4780100ML) (MC) orally once daily for three days. 96 hours post-vaccination, lymph node and spleen tissue were isolated for analysis. Single-cell suspensions were treated with ACK lysis to remove red blood cells, and then stained following the immune profiling by flow cytometry method. Treatment effectiveness was determined by the percent proliferation and PD-1 expression of adoptively transferred cells."}, "[5]": {"system": "CD8 T cells", "assay": "Annexin/PI apoptosis staining, CD8", "format": "cell-based, mouse", "settings": "3 μM or 10 μM, 72 hours, vs DMSO", "protocol": "as §1, §2"}, "[6]": {"system": "CD8 T cells", "assay": "XFe ATP rate assay, CD8 T cells", "format": "cell-based, mouse", "settings": "10 μM, 72 hours", "protocol": "as §1\nTreated CD8 T cell were prepared following the in vitro T cell activation method and incubated for 72 hours at 37° C., 5% CO2. Treated BM-MDSCs were prepared followed the in vitro BM-MDSCs differentiation method. The XFe ATP rate assay preparation and analysis was conducted following the manufacturer's user guide and instructions. […] Treated cells were removed from culture, pelleted and resuspended in warm assay medium at a concentration of 3×10^6 cells/ml (1.5×10^5 cells/well) for CD8 T cells and 2.6×10^6 cells/ml (1.3×10^5 cells/well) for BM-MDSCs. Cells were adhered to the culture plate by centrifugation 200×G, for one minute with zero brake per the manufacturer's instructions for immobilization of non-adherent cells (Agilent, Santa Clara, CA). […] Results were procured using the Seahorse XF real-time ATP rate assay report generator."}, "[7]": {"system": "CD4 T cells", "assay": "CD4 T cell differentiation by flow cytometry", "format": "cell-based, mouse", "settings": "72 hours; for naïve CD4 T cell compartment, reduction vs DMSO: trend not found to be significant", "protocol": "as §1, with “duration. […] After staining, cells were pelleted, resuspended and run by a BD FACSymphony A3 flow cytometer.” for “duration.”"}, "[8]": {"settings": "cited from earlier work"}, "[9]": {"system": "cytochrome family of enzymes", "settings": "cited from earlier work"}},
  "data": [
    {"smiles": "O=c1nc(OC[C@@H]2COCCO2)cc2n1CCc1cc(C#CC3CC3)ccc1-2", "note": "[GLPG1205, 9-Cyclopropylethynyl-2-((S)-1-[1,4]dioxan-2-ylmethoxy)-6,7-dihydropyrimido[6,1-a]isoquinolin-4-one]", "values": [
      {"measurement": "CD4 apoptosis (Annexin/PI)", "setting": "[1]", "value": "did not elicit any significant changes"},
      {"measurement": "GPR84 expression", "setting": "[2]", "value": "only neared statistical significance"},
      {"measurement": "tumor growth rate after adoptive transfer of pre-treated pmel-I CD8 T cells", "setting": "[3]", "value": "significant reduction in the tumor growth rate"},
      {"measurement": "PD-1 expression, splenic compartment, compared to MC vehicle", "setting": "[4]; 30 mg/kg or 90 mg/kg", "value": "no significant increase"},
      {"measurement": "OT-I CD8 T cell proliferation, lymph node", "setting": "[4]; 30 mg/kg orally once daily for 3 days", "value": 73.84, "unit": "%"},
      {"measurement": "effector/memory CD8 OT-I T cells, splenic compartment", "setting": "[4]; 30 mg/kg", "value": 30.12, "unit": "%"},
      {"measurement": "adoptively transferred cells expressing PD-1, lymph node", "setting": "[4]; 30 mg/kg", "value": 16.05, "unit": "%"},
      {"measurement": "effector/memory CD8 OT-I T cells, lymph node", "setting": "[4]; 30 mg/kg", "value": 47.38, "unit": "%"},
      {"measurement": "OT-I CD8 T cell proliferation, splenic compartment", "setting": "[4]; 30 mg/kg", "value": 50.99, "unit": "%"},
      {"measurement": "naïve CD8 OT-I T cells, splenic compartment", "setting": "[4]; 30 mg/kg", "value": 26.16, "unit": "%"},
      {"measurement": "naïve CD8 OT-I T cells, lymph node", "setting": "[4]; 30 mg/kg", "value": 12.87, "unit": "%"},
      {"measurement": "OT-I CD8 T cell proliferation, lymph node", "setting": "[4]; 90 mg/kg orally once daily for 3 days", "value": 74.56, "unit": "%"},
      {"measurement": "adoptively transferred cells expressing PD-1, lymph node", "setting": "[4]; 90 mg/kg, non-significant increase", "value": 15.75, "unit": "%"},
      {"measurement": "effector/memory CD8 OT-I T cells, splenic compartment", "setting": "[4]; 90 mg/kg", "value": 37.72, "unit": "%"},
      {"measurement": "effector/memory CD8 OT-I T cells, lymph node", "setting": "[4]; 90 mg/kg", "value": 53.97, "unit": "%"},
      {"measurement": "OT-I CD8 T cell proliferation, splenic compartment", "setting": "[4]; 90 mg/kg", "value": 59.35, "unit": "%"},
      {"measurement": "naïve CD8 OT-I T cells, splenic compartment", "setting": "[4]; 90 mg/kg", "value": 16.37, "unit": "%"},
      {"measurement": "naïve CD8 OT-I T cells, lymph node", "setting": "[4]; 90 mg/kg", "value": 9.48, "unit": "%"},
      {"measurement": "CD8 apoptosis (Annexin/PI)", "setting": "[5]", "value": "significantly reduced CD8 apoptosis"},
      {"measurement": "percent of ATP generated by OXPHOS", "setting": "[6]; DMSO 49%", "value": 39.7, "unit": "%"},
      {"measurement": "percent of ATP generated by glycolysis", "setting": "[6]; DMSO 51%", "value": 60.3, "unit": "%"},
      {"measurement": "ATP production rate through mitochondrial OXPHOS (mitoATP)", "setting": "[6]; DMSO 392.74", "value": 486.75, "unit": "pmol/min"},
      {"measurement": "ATP production rate through glycolysis (glycoATP)", "setting": "[6]; DMSO 409.61", "value": 737.62, "unit": "pmol/min"},
      {"measurement": "total ATP production rate", "setting": "[6]; DMSO control 816.19", "value": 1224.27, "unit": "pmol/min"},
      {"measurement": "OCR, ECAR and PER", "setting": "[6]; vs DMSO", "value": "raises the overall OCR, ECAR, and PER"},
      {"measurement": "effector/memory CD4 T cells, increase compared to DMSO control", "setting": "[7]; 3 μM", "value": 31.55, "unit": "%"},
      {"measurement": "naïve CD4 T cell compartment, reduction vs DMSO", "setting": "[7]; 3 μM", "value": 41.57, "unit": "%"},
      {"measurement": "effector/memory CD4 T cells, increase compared to DMSO control", "setting": "[7]; 10 μM", "value": 39.79, "unit": "%"},
      {"measurement": "naïve CD4 T cell compartment, reduction vs DMSO", "setting": "[7]; 10 μM", "value": 45.61, "unit": "%"},
      {"measurement": "inflammatory response in ulcerative colitis", "setting": "[8]; in vivo", "value": "unable to improve the inflammatory response"},
      {"measurement": "adverse outcome in ulcerative colitis study", "setting": "[8]; led to the drug's discontinuation", "value": "worsening of colitis in certain patients"},
      {"measurement": "interaction with the cytochrome family of enzymes", "setting": "[9]", "value": "strong safety profiles"}
    ]}
  ]
}
